Reference: patent US6358885B1, “Substituted phenylheterocyclic herbicides” (Mississippi State University, priority 1992, dated 2002)

Legend:
[1] = tested on: wild buckwheat; assay: Test C preemergence/postemergence greenhouse plant response rating 0 to 100; type: in vivo, Polygonum convolvulus; conditions: for Plant response rating, Wild buckwheat: 125 g/ha, 0 to 100 scale
Method in brief: (§1)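 Compounds in non-phytotoxic solvent applied preemergence to sandy loam one day after planting, postemergence at the 1–4 leaf stage, or to ~2.5 cm floodwater over silt loam.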

[2] = tested on: velvetleaf; assay: as above; type: in vivo, Abutilon theophrasti; conditions: for Plant response rating, Velvetleaf: 125 g/ha, 0 to 100 scale
Method in brief: as §1

[3] = tested on: downy brome; assay: as above; type: in vivo, Bromus tectorum; conditions: for Plant response rating Downy Brome: 125 g/ha, 0 to 100 scale
Method in brief: as §1

[4] = tested on: duck salad; assay: Test C flood test plant response rating 0 to 100; type: in vivo, Heteranthera limosa
Method in brief: as §1

[5] = tested on: chickweed; assay: Test C preemergence/postemergence greenhouse plant response rating 0 to 100; type: in vivo, Stellaria media; conditions: PREEMERGENCE
Method in brief: as §1

[6] = tested on: cotton; assay: as above; type: in vivo, Gossypium hirsutum; conditions: for Plant response rating, Cotton: 125 g/ha, 0 to 100 scale
Method in brief: as §1

[7] = tested on: wild buckwheat; assay: Test B preemergence/postemergence greenhouse plant response rating 0 to 10; type: in vivo, Polygonum convolvulus; conditions: 0 to 10 scale
Method in brief: (§2)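 Test chemicals were sprayed onto freshly planted seed and, concurrently, onto young plants between the one and four leaf stage. After a twelve- to sixteen-day greenhouse period, each species was visually compared with untreated controls.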

[8] = tested on: lambsquarters; assay: Test C preemergence/postemergence greenhouse plant response rating 0 to 100; type: in vivo, Chenopodium album; conditions: PREEMERGENCE
Method in brief: as §1

[9] = tested on: cheatgrass; assay: Test B preemergence/postemergence greenhouse plant response rating 0 to 10; type: in vivo, Bromus secalinus; conditions: 0 to 10 scale
Method in brief: as §2

[10] = tested on: barley; assay: Test C preemergence/postemergence greenhouse plant response rating 0 to 100; type: in vivo, Hordeum vulgare; conditions: for Plant response rating Barley Igri: 125 g/ha, 0 to 100 scale
Method in brief: as §1

[11] = tested on: giant foxtail; assay: Test B preemergence/postemergence greenhouse plant response rating 0 to 10; type: in vivo, Setaria faberii; conditions: 0 to 10 scale
Method in brief: as §2

[12] = tested on: chickweed; assay: as above; type: in vivo, Stellaria media; conditions: 0 to 10 scale
Method in brief: as §2

[13] = tested on: corn; assay: as above; type: in vivo, Zea mays; conditions: 0 to 10 scale
Method in brief: as §2

[14] = tested on: sugar beet; assay: Test C preemergence/postemergence greenhouse plant response rating 0 to 100; type: in vivo, Beta vulgaris; conditions: for Plant response rating, Sugar beet: 125 g/ha, 0 to 100 scale
Method in brief: as §1

[15] = tested on: soybean; assay: as above; type: in vivo, Glycine max; conditions: for Plant response rating, Soybean: 125 g/ha, 0 to 100 scale
Method in brief: as §1

[16] = tested on: sorghum; assay: Test B preemergence/postemergence greenhouse plant response rating 0 to 10; type: in vivo, Sorghum bicolor; conditions: 0 to 10 scale
Method in brief: as §2

[17] = tested on: ryegrass; assay: Test C preemergence/postemergence greenhouse plant response rating 0 to 100; type: in vivo, Lolium multiflorum; conditions: for Plant response rating Ryegrass: 125 g/ha, 0 to 100 scale
Method in brief: as §1

[18] = tested on: wild oat; assay: Test B preemergence/postemergence greenhouse plant response rating 0 to 10; type: in vivo, Avena fatua; conditions: 0 to 10 scale
Method in brief: as §2

Fc1cc(Cl)ccc1-c1nn2c(c1Br)CCCC2 [Compound 52]
5: Plant response rating, Giant foxtail ([11]; POSTEMERGENCE, Rate 50 g/ha) | Plant response rating, Chickweed ([12]; POSTEMERGENCE, Rate 50 g/ha) | Plant response rating, Wild oat ([18]; POSTEMERGENCE, Rate 50 g/ha)
4: Plant response rating, Cheatgrass ([9]; POSTEMERGENCE, Rate 50 g/ha) | Plant response rating, Corn ([13]; Rate 200 g/ha, PREEMERGENCE) | Plant response rating, Sorghum ([16]; POSTEMERGENCE, Rate 50 g/ha) | Plant response rating, Wild oat ([18]; PREEMERGENCE, Rate 50 g/ha)
70: Plant response rating (0 to 100), Cotton ([6]; POSTEMERGENCE, Rate 2 g/ha) | Plant response rating (0 to 100), Sugar beet ([14]; POSTEMERGENCE, Rate 2 g/ha) | Plant response rating (0 to 100), Sugar beet ([14]; Rate 8 g/ha, POSTEMERGENCE) | Plant response rating (0 to 100), Sugar beet ([14]; Rate 31 g/ha, PREEMERGENCE) | Plant response rating, Soybean ([15]; POSTEMERGENCE)
2: Plant response rating, Sorghum ([16]; PREEMERGENCE, Rate 50 g/ha)
85: Plant response rating Duck salad ([4]; flood test species listed under POSTEMERGENCE, 125 g/ha, 0 to 100 scale)
7: Plant response rating, Wild buckwheat ([7]; PREEMERGENCE, Rate 50 g/ha) | Plant response rating, Cheatgrass ([9]; POSTEMERGENCE, Rate 200 g/ha) | Plant response rating, Giant foxtail ([11]; Rate 200 g/ha, POSTEMERGENCE) | Plant response rating, Chickweed ([12]; POSTEMERGENCE, Rate 200 g/ha) | Plant response rating, Sorghum ([16]; Rate 200 g/ha, POSTEMERGENCE)
3: Plant response rating, Sorghum ([16]; Rate 200 g/ha, PREEMERGENCE)
100: Plant response rating, Wild buckwheat ([1]; POSTEMERGENCE) | Plant response rating, Wild buckwheat ([1]; PREEMERGENCE) | Plant response rating, Velvetleaf ([2]; POSTEMERGENCE) | Plant response rating, Velvetleaf ([2]; PREEMERGENCE) | Plant response rating (0 to 100), Velvetleaf ([2]; Rate 31 g/ha, POSTEMERGENCE) | Plant response rating (0 to 100), Velvetleaf ([2]; Rate 31 g/ha, PREEMERGENCE) | Plant response rating, Cotton ([6]; POSTEMERGENCE) | Plant response rating Lambsquarters ([8]; 125 g/ha, 0 to 100 scale) | Plant response rating, Sugar beet ([14]; POSTEMERGENCE) | Plant response rating, Sugar beet ([14]; PREEMERGENCE) | Plant response rating (0 to 100), Sugar beet ([14]; Rate 31 g/ha, POSTEMERGENCE)
80: Plant response rating (0 to 100), Wild buckwheat ([1]; Rate 31 g/ha, POSTEMERGENCE)
95: Plant response rating (0 to 100), Cotton ([6]; Rate 8 g/ha, POSTEMERGENCE) | Plant response rating (0 to 100), Cotton ([6]; Rate 31 g/ha, POSTEMERGENCE)
90: Plant response rating (0 to 100), Velvetleaf ([2]; Rate 8 g/ha, POSTEMERGENCE) | Plant response rating Downy Brome ([3]; POSTEMERGENCE)
20: Plant response rating (0 to 100), Downy Brome ([3]; Rate 8 g/ha, POSTEMERGENCE) | Plant response rating (0 to 100), Duck salad ([4]; Rate 31 g/ha, under POSTEMERGENCE head (flood test species)) | Plant response rating, Chickweed ([5]; 125 g/ha, 0 to 100 scale) | Plant response rating (0 to 100), Barley Igri ([10]; Rate 8 g/ha, POSTEMERGENCE) | Plant response rating (0 to 100), Ryegrass ([17]; Rate 8 g/ha, POSTEMERGENCE)
1: Plant response rating, Corn ([13]; PREEMERGENCE, Rate 50 g/ha)
9: Plant response rating, Giant foxtail ([11]; PREEMERGENCE, Rate 50 g/ha) | Plant response rating, Chickweed ([12]; PREEMERGENCE, Rate 50 g/ha) | Plant response rating, Chickweed ([12]; Rate 200 g/ha, PREEMERGENCE)
8: Plant response rating, Corn ([13]; POSTEMERGENCE, Rate 200 g/ha) | Plant response rating, Wild oat ([18]; Rate 200 g/ha, POSTEMERGENCE)
0: Plant response rating (0 to 100), Wild buckwheat ([1]; PREEMERGENCE, Rate 2 g/ha) | Plant response rating (0 to 100), Wild buckwheat ([1]; Rate 8 g/ha, PREEMERGENCE) | Plant response rating (0 to 100), Velvetleaf ([2]; PREEMERGENCE, Rate 2 g/ha) | Plant response rating (0 to 100), Downy Brome ([3]; PREEMERGENCE, Rate 2 g/ha) | Plant response rating (0 to 100), Downy Brome ([3]; Rate 8 g/ha, PREEMERGENCE) | Plant response rating (0 to 100), Downy Brome ([3]; Rate 31 g/ha, PREEMERGENCE) | Plant response rating (0 to 100), Duck salad ([4]; POSTEMERGENCE section, flood test, Rate 2 g/ha) | Plant response rating (0 to 100), Duck salad ([4]; Rate 8 g/ha, under POSTEMERGENCE head (flood test species)) | Plant response rating (0 to 100), Chickweed ([5]; Rate 2 g/ha) | Plant response rating (0 to 100), Chickweed ([5]; Rate 8 g/ha) | Plant response rating (0 to 100), Chickweed ([5]; Rate 31 g/ha) | Plant response rating, Cotton ([6]; PREEMERGENCE) | Plant response rating (0 to 100), Cotton ([6]; PREEMERGENCE, Rate 2 g/ha) | Plant response rating (0 to 100), Cotton ([6]; Rate 8 g/ha, PREEMERGENCE) | Plant response rating (0 to 100), Cotton ([6]; Rate 31 g/ha, PREEMERGENCE) | Plant response rating (0 to 100), Lambsquarters ([8]; Rate 2 g/ha) | Plant response rating (0 to 100), Lambsquarters ([8]; Rate 8 g/ha) | Plant response rating (0 to 100), Barley Igri ([10]; PREEMERGENCE, Rate 2 g/ha) | Plant response rating (0 to 100), Barley Igri ([10]; Rate 8 g/ha, PREEMERGENCE) | Plant response rating (0 to 100), Barley Igri ([10]; Rate 31 g/ha, PREEMERGENCE) | Plant response rating (0 to 100), Sugar beet ([14]; PREEMERGENCE, Rate 2 g/ha) | Plant response rating (0 to 100), Sugar beet ([14]; Rate 8 g/ha, PREEMERGENCE) | Plant response rating, Soybean ([15]; PREEMERGENCE) | Plant response rating (0 to 100), Soybean ([15]; PREEMERGENCE, Rate 2 g/ha) | Plant response rating (0 to 100), Soybean ([15]; Rate 8 g/ha, PREEMERGENCE) | Plant response rating (0 to 100), Soybean ([15]; Rate 31 g/ha, PREEMERGENCE) | Plant response rating (0 to 100), Ryegrass ([17]; PREEMERGENCE, Rate 2 g/ha) | Plant response rating (0 to 100), Ryegrass ([17]; Rate 8 g/ha, PREEMERGENCE)
30: Plant response rating (0 to 100), Velvetleaf ([2]; Rate 8 g/ha, PREEMERGENCE) | Plant response rating (0 to 100), Soybean ([15]; Rate 8 g/ha, POSTEMERGENCE)
10: Plant response rating (0 to 100), Wild buckwheat ([1]; Rate 31 g/ha, PREEMERGENCE) | Plant response rating (0 to 100), Downy Brome ([3]; POSTEMERGENCE, Rate 2 g/ha) | Plant response rating, Wild buckwheat ([7]; POSTEMERGENCE, Rate 50 g/ha) | Plant response rating, Wild buckwheat ([7]; Rate 200 g/ha, POSTEMERGENCE) | Plant response rating, Wild buckwheat ([7]; Rate 200 g/ha, PREEMERGENCE) | Plant response rating, Cheatgrass ([9]; Rate 200 g/ha, PREEMERGENCE) | Plant response rating (0 to 100), Barley Igri ([10]; POSTEMERGENCE, Rate 2 g/ha) | Plant response rating Barley Igri ([10]; PREEMERGENCE) | Plant response rating, Giant foxtail ([11]; Rate 200 g/ha, PREEMERGENCE) | Plant response rating (0 to 100), Soybean ([15]; POSTEMERGENCE, Rate 2 g/ha) | Plant response rating (0 to 100), Ryegrass ([17]; POSTEMERGENCE, Rate 2 g/ha) | Plant response rating (0 to 100), Ryegrass ([17]; Rate 31 g/ha, PREEMERGENCE)
6: Plant response rating, Cheatgrass ([9]; PREEMERGENCE, Rate 50 g/ha) | Plant response rating, Corn ([13]; POSTEMERGENCE, Rate 50 g/ha)
40: Plant response rating (0 to 100), Wild buckwheat ([1]; Rate 8 g/ha, POSTEMERGENCE) | Plant response rating (0 to 100), Barley Igri ([10]; Rate 31 g/ha, POSTEMERGENCE) | Plant response rating (0 to 100), Soybean ([15]; Rate 31 g/ha, POSTEMERGENCE) | Plant response rating (0 to 100), Ryegrass ([17]; Rate 31 g/ha, POSTEMERGENCE)
60: Plant response rating Ryegrass ([17]; POSTEMERGENCE)
50: Plant response rating (0 to 100), Velvetleaf ([2]; POSTEMERGENCE, Rate 2 g/ha) | Plant response rating Downy Brome ([3]; PREEMERGENCE) | Plant response rating (0 to 100), Downy Brome ([3]; Rate 31 g/ha, POSTEMERGENCE) | Plant response rating (0 to 100), Lambsquarters ([8]; Rate 31 g/ha) | Plant response rating Barley Igri ([10]; POSTEMERGENCE) | Plant response rating Ryegrass ([17]; PREEMERGENCE)
